Data on 19 molecules can be found in patent US12371430B2, “5-morpholin-4-yl-pyrazolo[4,3-b]pyridine derivatives” (Merck Patent GmbH, priority 2018, dated 2025).

One assay concerns the target ATR/ATRIP (Homo sapiens (Human), UniProt Q13535). Kind of assay: ATR/ATRIP kinase assay (TR-FRET, p53 Ser15 phosphorylation). Format: biochemical. As to conditions: 0.5 μM ATP, 50 nM p53. The method, then: ATR/ATRIP Kinase Assay—Measurement of ATR/ATRIP Inhibition
The IC50 value was determined by an ATR/ATRIP enzymatic assay. The assay comprises two steps: the enzymatic reaction and the detection step. First, a mixture of ATR/ATRIP protein (Ataxia Telangiectasia and Rad3-related protein/ATR interacting protein), the compound in question at different concentrations, p53 as substrate protein and adenosine triphosphate (ATP) are incubated in assay buffer. ATR phosporylates p53 at Ser15 and other residues. The amount of phosphorylated p53 is then detected using specific antibodies and the TR-FRET assay technology.
In detail: The ATR/ATRIP enzymatic assay is performed as a TR-FRET-(HTRF™, Cisbio Bioassays) based 384-well assay. In a first step, purified human recombinant ATR/ATRIP (human ATR, full length, GenBank ID: NM_001184.3, and human ATRIP, full length, GenBank ID AF451323.1, co-expressed in a mammalian cell line) is incubated in assay buffer for 15 minutes at 22° C. with test compound at different concentrations or without test compound (as a negative control). The assay buffer contains 25 mM HEPES pH 8.0, 10 mM Mg(CH3COO)2, 1 mM MnCl2, 0.1% BSA, 0.01% Brij® 35, and 5 mM dithiothreitol (DTT). An Echo 555 (Labcyte) is used for dispensing of compound solutions. Then, in a second step, purified human recombinant cmyc-tagged p53 (human p53, full length, GenBank ID: BC003596, expressed in Sf21 insect cells) and ATP are added and the reaction mixture is incubated for 25-35 minutes, typically 25 minutes, at 22° C. The pharmacologically relevant assay volume is 5 μl. The final concentrations in the assay during incubation of the reaction mixture are 0.3-0.5 nM, typically 0.3 nM, ATR/ATRIP, 50 nM p53, and 0.5 μM ATP. The enzymatic reaction is stopped by the addition of EDTA. The generation of phosphorylated p53 as a result of the ATR mediated reaction in the presence of ATP is detected by using specific antibodies [labeled with the fluorophores europium (Eu) as donor and d2 as acceptor (Cisbio Bioassays)] enabling FRET. For this purpose, 2 μl of antibody-containing stop solution (12.5 mM HEPES pH 8.0, 125 mM EDTA, 30 mM sodium chloride, 300 mM potassium fluoride, 0.006% Tween-20, 0.005% Brij® 35, 0.21 nM anti-phospho-p53(Ser15)-Eu antibody, 15 nM anti-cmyc-d2 antibody) are added to the reaction mixture. Following signal development for 2 h the plates are analyzed in an EnVision (PerkinElmer) microplate reader using the TRF mode with laser excitation. Upon excitation of the donor europium at 340 nm the emitted fluorescence light of the acceptor d2 at 665 nm as well as from the donor Eu at 615 nm are measured. The amount of phosphorylated p53 is directly proportional to the ratio of the amounts of emitted light i.e. the ratio of the relative fluorescence units (rfu) at 665 nm and 615 nm. Data are processed employing the Genedata Screener software. In particular, IC50 values are determined in the usual manner by fitting a dose-response curve to the data points using nonlinear regression analysis. • IC50=half maximal inhibitory concentration • ATP=Adenosine triphosphate • TR-FRET=Time-Resolved Fluorescence Resonance Energy Transfer • HTRF®=Homogeneous Time Resolved Fluorescence • HEPES=2-(4-(2-Hydroxyethyl)-1-piperazinyl)-ethanesulfonic acid • Mg(CH3COO)2=Magnesium acetate • MnCl2=Manganese(II)-chloride • BSA=Bovine Serum Albumin • EDTA=Ethylendiamine Tetraacetate • TRF=Time Resolved Fluorescence pCHK1 Cellular Assay
For orientation: In TR-FRET formats the signal depends on donor and acceptor labels being close together.

The subject of assay [1] is phosphorylation of Chk1 (Ser 345) in HT29 colon adenocarcinoma cells. Put plainly: pCHK1 cellular assay. Format: cell-based. As to conditions: Homo sapiens, HT-29, hydroxyurea 3 mM, 4 h. From the text:
Chk1 kinase acts downstream of ATR and has a key role in DNA damage checkpoint control. Activation of Chk1 involves phosphorylation of Ser317 and Ser345 (regarded as the preferential target for phosphorylation/activation by ATR) and occurs in response to blocked DNA replication and certain forms of genotoxic stress. Phosphorylation at Ser 345 serves to localize Chk1 to the nucleus following checkpoint activation.
This assay measures a decrease in phosphorylation of Chk1 (Ser 345) in HT29 colon adenocarcinoma cells following treatment with compound and hydroxyurea (which promotes fork stalling because of dNTP depletion) and using an immunocytochemical procedure and high content imaging.
For the assay HT29 cells are plated in culture medium (DMEM high Glucose (no phenol red), 2 mM Glutamax, 1 mM Pyruvate, 10% FCS into Greiner 384 well plates, black, μclear #781090 (2500 cells/well/30 μl) and incubated for at least 20 hours at 37° C., 10% CO2 and 90% rH. Diluted test compounds (1 nM-30 μM final) and hydroxyurea (3 mM final) are added simultaneously and cells are incubated for 4 h at 37° C. After fixation/prmeabilisation with 100% MeOH (−20° C. cold) and permeabilisation with 0.2% Triton X-100 a complete immunocytochemical procedure is performed using a specific anti-pChk1 antibody (Cell Signaling, #2348BF) and fluorescently labelled secondary antibody (Alexa Fluor® 488 goat anti-rabbit F(ab′)2 fragment, Invitrogen A11070) and parallel nuclear staining for cell counting.
The nuclear localised pChk1 signal is detected on an ImageXpress Ultra confocal high content reader and reported as % positive cells (nuclei).

Chain of ATR/ATRIP (Q13535 whole entry): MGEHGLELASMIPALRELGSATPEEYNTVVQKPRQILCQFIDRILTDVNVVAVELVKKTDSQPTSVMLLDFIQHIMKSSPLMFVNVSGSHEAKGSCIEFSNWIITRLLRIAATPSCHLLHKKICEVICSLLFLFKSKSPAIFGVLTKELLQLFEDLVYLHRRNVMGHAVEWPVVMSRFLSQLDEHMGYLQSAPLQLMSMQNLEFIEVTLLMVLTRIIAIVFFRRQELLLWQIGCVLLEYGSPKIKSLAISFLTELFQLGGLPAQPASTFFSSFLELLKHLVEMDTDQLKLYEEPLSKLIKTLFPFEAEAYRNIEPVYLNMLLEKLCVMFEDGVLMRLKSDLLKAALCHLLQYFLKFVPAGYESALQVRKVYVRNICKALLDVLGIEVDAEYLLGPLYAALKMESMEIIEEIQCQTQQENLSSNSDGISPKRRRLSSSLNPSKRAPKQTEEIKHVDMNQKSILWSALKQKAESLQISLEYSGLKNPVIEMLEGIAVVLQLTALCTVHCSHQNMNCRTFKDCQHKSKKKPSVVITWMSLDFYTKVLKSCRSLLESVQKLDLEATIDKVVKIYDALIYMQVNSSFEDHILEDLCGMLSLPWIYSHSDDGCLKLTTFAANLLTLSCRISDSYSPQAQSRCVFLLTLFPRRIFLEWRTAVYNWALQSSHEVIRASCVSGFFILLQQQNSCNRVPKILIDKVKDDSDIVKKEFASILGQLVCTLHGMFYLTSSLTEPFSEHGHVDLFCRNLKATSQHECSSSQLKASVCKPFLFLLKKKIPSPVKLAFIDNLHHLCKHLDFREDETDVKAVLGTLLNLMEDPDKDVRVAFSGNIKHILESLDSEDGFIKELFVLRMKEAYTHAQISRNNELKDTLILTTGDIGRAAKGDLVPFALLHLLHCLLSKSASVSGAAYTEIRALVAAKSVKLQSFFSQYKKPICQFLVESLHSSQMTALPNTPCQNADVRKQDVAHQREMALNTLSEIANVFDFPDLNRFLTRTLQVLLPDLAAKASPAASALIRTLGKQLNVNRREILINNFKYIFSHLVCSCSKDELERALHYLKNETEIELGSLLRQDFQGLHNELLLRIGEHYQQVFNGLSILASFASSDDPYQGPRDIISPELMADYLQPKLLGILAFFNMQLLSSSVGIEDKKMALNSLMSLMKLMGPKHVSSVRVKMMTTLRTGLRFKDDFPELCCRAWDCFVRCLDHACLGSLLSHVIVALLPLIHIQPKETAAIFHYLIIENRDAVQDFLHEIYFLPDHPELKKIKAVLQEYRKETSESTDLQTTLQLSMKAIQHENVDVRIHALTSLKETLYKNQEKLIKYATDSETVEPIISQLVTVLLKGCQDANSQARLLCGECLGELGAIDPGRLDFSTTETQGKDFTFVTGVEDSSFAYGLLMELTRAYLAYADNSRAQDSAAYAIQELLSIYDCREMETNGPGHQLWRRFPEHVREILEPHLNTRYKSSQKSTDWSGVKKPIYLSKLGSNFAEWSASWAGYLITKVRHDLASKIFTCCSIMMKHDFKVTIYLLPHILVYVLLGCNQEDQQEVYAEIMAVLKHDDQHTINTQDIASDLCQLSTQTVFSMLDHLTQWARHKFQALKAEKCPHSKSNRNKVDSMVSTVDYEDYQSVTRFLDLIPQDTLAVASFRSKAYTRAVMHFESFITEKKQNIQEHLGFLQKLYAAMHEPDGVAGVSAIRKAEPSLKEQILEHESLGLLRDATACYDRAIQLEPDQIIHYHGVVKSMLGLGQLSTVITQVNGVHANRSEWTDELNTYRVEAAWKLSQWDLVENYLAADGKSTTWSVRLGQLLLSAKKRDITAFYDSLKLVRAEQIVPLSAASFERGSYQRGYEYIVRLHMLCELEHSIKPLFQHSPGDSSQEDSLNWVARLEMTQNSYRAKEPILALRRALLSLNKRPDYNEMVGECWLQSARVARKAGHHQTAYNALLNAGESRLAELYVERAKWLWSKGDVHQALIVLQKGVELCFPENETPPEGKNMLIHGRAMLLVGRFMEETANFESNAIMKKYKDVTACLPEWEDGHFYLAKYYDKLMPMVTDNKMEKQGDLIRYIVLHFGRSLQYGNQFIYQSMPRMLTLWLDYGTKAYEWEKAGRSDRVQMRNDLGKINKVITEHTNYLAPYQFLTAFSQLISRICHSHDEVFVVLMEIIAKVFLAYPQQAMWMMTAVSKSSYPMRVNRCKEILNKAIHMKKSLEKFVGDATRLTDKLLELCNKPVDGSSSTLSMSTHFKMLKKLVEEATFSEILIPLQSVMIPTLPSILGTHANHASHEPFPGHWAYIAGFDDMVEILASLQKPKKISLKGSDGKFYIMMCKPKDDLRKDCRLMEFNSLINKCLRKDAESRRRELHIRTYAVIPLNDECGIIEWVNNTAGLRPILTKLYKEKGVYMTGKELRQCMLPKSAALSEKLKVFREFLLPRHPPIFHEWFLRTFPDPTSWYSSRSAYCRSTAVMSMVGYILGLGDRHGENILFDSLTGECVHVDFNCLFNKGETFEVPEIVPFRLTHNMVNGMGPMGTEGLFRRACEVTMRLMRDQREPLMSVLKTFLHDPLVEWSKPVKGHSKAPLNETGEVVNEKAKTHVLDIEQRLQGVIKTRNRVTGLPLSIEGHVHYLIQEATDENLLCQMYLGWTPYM
Chain of ATR/ATRIP (Q8WXE1 whole entry partner): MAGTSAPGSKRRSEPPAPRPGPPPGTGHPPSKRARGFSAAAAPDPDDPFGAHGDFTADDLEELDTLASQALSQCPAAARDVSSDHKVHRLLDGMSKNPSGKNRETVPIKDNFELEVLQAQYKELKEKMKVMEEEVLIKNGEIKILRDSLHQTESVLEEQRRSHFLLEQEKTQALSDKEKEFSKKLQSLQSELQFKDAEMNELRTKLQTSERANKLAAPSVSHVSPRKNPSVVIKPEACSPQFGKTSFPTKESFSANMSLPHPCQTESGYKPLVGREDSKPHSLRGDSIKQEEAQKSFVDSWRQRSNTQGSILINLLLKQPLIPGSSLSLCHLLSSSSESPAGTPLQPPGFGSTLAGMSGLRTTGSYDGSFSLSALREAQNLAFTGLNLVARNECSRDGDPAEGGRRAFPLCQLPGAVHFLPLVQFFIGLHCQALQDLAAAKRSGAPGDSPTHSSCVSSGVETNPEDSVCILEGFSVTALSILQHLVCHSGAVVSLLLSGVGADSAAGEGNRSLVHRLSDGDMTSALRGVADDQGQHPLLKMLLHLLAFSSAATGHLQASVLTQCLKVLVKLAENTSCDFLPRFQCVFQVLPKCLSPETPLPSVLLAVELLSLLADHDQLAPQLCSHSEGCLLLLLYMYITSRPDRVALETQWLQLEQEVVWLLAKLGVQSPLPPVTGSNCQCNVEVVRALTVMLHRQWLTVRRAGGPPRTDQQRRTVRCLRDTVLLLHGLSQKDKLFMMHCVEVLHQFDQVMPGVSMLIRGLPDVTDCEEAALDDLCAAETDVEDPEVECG

Regarding `Cc1ccc(-c2cc(N3CCOC[C@H]3C)nc3c(-c4cc(C)n[nH]4)n[nH]c23)cn1` [Compound 3, (3R)-3-Methyl-4-[3-(3-methyl-1H-pyrazol-5-yl)-7-(6-methylpyridin-3-yl)-1H-pyrazolo[4,3-b]pyridin-5-yl]morpholine], the figures for the IC50 (against ATR/ATRIP; in assay [1]) were 0.9 nM and 10 to 100 nM, respectively.

`C[C@@H]1COCCN1c1cc(-c2ccc(S(C)(=N)=O)cc2)c2c(n1)c(-c1cc[nH]n1)nn2C` (stereo partly drawn) [Compound 6, Imino(methyl)(4-{1-methyl-5-[(3R)-3-methylmorpholin-4-yl]-3-(1H-pyrazol-3-yl)-1H-pyrazolo[4,3-b]pyridin-7-yl}phenyl)-lambda6-sulfanone]: the IC50 is 8.9 nM against ATR/ATRIP and 100 to 1000 nM in assay [1].

As for `Cc1nc([S@+](C)[O-])ccc1-c1cc(N2CCOC[C@H]2C)nc2c(-c3cc[nH]n3)nn(C)c12` [Compound 9, (3R)-4-(7-{6-[(S)-Methanesulfinyl]-2-methylpyridin-3-yl}-1-methyl-3-(1H-pyrazol-3-yl)-1H-pyrazolo[4,3-b]pyridin-5-yl)-3-methylmorpholine], the results for the half-inhibitory concentration (IC50) (against ATR/ATRIP; in assay [1]) were 4.1 nM and 10 to 100 nM, respectively.

`Cc1nc([S@@+](C)[O-])ccc1-c1cc(N2CCOC[C@H]2C)nc2c(-c3cc[nH]n3)nn(C)c12` [Compound 10, (3R)-4-(7-{6-[(R)-Methanesulfinyl]-2-methylpyridin-3-yl}-1-methyl-3-(1H-pyrazol-3-yl)-1H-pyrazolo[4,3-b]pyridin-5-yl)-3-methylmorpholine]: the IC50 on ATR/ATRIP was 1.9 nM; in assay [1], 10 to 100 nM.

`Cc1nc(S(C)(=O)=O)ccc1-c1cc(N2CCOC[C@H]2C)nc2c(-c3cc[nH]n3)n[nH]c12` [Compound 12, 7-(6-Methanesulfonyl-2-methyl-pyridin-3-yl)-5-((R)-3-methyl-morpholin-4-yl)-3-(1H-pyrazol-3-yl)-1H-pyrazolo[4,3-b]pyridine]: the IC50 was 0.8 nM on ATR/ATRIP and 100 to 1000 nM in assay [1].

In the case of `Cc1cc(-c2n[nH]c3c(-c4ccc(S(C)(=O)=O)nc4C)cc(N4CCOC[C@H]4C)nc23)[nH]n1` [Compound 13, (3R)-4-[7-(6-Methanesulfonyl-2-methylpyridin-3-yl)-3-(3-methyl-1H-pyrazol-5-yl)-1H-pyrazolo[4,3-b]pyridin-5-yl]-3-methylmorpholine], the IC50 was 1.4 nM against ATR/ATRIP and 100 to 1000 nM in assay [1].

In the case of `Cc1ccc(-c2cc(N3CCOC[C@H]3C)nc3c(-c4cc[nH]n4)n(C)nc23)cn1` [Compound 14, 2-Methyl-5-((R)-3-methyl-morpholin-4-yl)-7-(6-methyl-pyridin-3-yl)-3-(1H-pyrazol-3-yl)-2H-pyrazolo[4,3-b]pyridine], the IC50 on ATR/ATRIP is 99 nM; in assay [1], 1000 to 10000 nM.

`C[C@@H]1COCCN1c1cc(-c2ccnc3[nH]ccc23)c2nn(C)c(-c3cc[nH]n3)c2n1` [Compound 16, 2-Methyl-5-((R)-3-methyl-morpholin-4-yl)-3-(1H-pyrazol-3-yl)-7-(1H-pyrrolo[2,3-b]pyridin-4-yl)-2H-pyrazolo[4,3-b]pyridine]: the IC50 at ATR/ATRIP was 67 nM; in assay [1], 1000 to 10000 nM.

At ATR/ATRIP, `Cc1cc(S(C)(=O)=O)ncc1-c1cc(N2CCOC[C@H]2C)nc2c(-c3cc[nH]n3)n(C)nc12` [Compound 21, 7-(6-Methanesulfonyl-4-methyl-pyridin-3-yl)-2-methyl-5-((R)-3-methyl-morpholin-4-yl)-3-(1H-pyrazol-3-yl)-2H-pyrazolo[4,3-b]pyridine] gave an IC50 of 510 nM.

Regarding `Cc1ccnc(C)c1-c1cc(N2CCOC[C@H]2C)nc2c(-c3cc[nH]n3)nn(C)c12` [Compound 22, 7-(2,4-Dimethyl-pyridin-3-yl)-1-methyl-5-((R)-3-methyl-morpholin-4-yl)-3-(1H-pyrazol-3-yl)-1H-pyrazolo[4,3-b]pyridine], the figures for the IC50 (at ATR/ATRIP; in assay [1]) were 3.3 nM and 100 to 1000 nM, respectively.

Take `C[C@@H]1COCCN1c1cc(O)c2c(n1)c(-c1ccn[nH]1)nn2C` [Compound 45, 1-Methyl-5-((R)-3-methyl-morpholin-4-yl)-3-(2H-pyrazol-3-yl)-1H-pyrazolo[4,3-b]pyridin-7-ol]: the IC50 at ATR/ATRIP turned out to be 1800 nM.

Molecule `C[C@@H]1COCCN1c1cc([C@H]2CCOC2)c2c(n1)c(-c1ccn[nH]1)nn2C` [Compound 72, 1-Methyl-5-((R)-3-methyl-morpholin-4-yl)-3-(2H-pyrazol-3-yl)-7-(R)-tetrahydro-furan-3-yl-1H-pyrazolo[4,3-b]pyridine] displayed an IC50 in assay [1] of 10 to 100 nM.

Take `Cc1nc(S(C)(=O)=O)ccc1-c1cc(N2CCOC[C@H]2C)nc2c(-c3cc(C(F)(F)F)n[nH]3)nn(C)c12` [Compound 74, (3R)-4-[7-(6-Methanesulfonyl-2-methylpyridin-3-yl)-1-methyl-3-[3-(trifluoromethyl)-1H-pyrazol-5-yl]-1H-pyrazolo[4,3-b]pyridin-5-yl]-3-methyl-morpholine]: the IC50 at ATR/ATRIP was found to be 17 nM.

On to `C[C@@H]1COCCN1c1cc(C2=CCSCC2)c2c(n1)c(-c1ccn[nH]1)nn2C` [Compound 79, (3R)-4-[7-(3,6-Dihydro-2H-thiopyran-4-yl)-1-methyl-3-(1H-pyrazol-5-yl)-1H-pyrazolo[4,3-b]pyridin-5-yl]-3-methylmorpholine], for which, in assay [1], the half-maximal inhibitory concentration (IC50) was in the range of 10 to 100 nM.

As to `C[C@@H]1COCCN1c1cc(C2=CC[S+]([O-])CC2)c2c(n1)c(-c1ccn[nH]1)nn2C` (stereo partly drawn) [Compound 80, 4-[1-Methyl-5-[(3R)-3-methylmorpholin-4-yl]-3-(1H-pyrazol-5-yl)-1H-pyrazolo[4,3-b]pyridin-7-yl]-3,6-dihydro-2H-1lambda4-thiopyran-1-one], the half-maximal inhibitory concentration (IC50) in assay [1] is 100 to 1000 nM.

In assay [1], `C[C@@H]1COCCN1c1cc(C2CCS(=O)(=O)CC2)c2c(n1)c(-c1ccn[nH]1)nn2C` [Compound 82] gave an IC50 of 100 to 1000 nM.

In assay [1], `C[C@@H]1COCCN1c1ccc2c(n1)c(-c1cc[nH]n1)nn2Cc1cccnc1` [Compound 83, (3R)-3-Methyl-4-[3-(1H-pyrazol-3-yl)-1-[(pyridin-3-yl)methyl]-1H-pyrazolo[4,3-b]pyridin-5-yl]morpholine] came in with an IC50 of 1000 to 10000 nM.

`Cc1c(-c2cc(N3CCOC[C@H]3C)nc3c(-c4cc[nH]n4)nn(C)c23)nnn1C` [Compound 84, (3R)-4-[7-(1,5-Dimethyl-1H-1,2,3-triazol-4-yl)-1-methyl-3-(1H-pyrazol-3-yl)-1H-pyrazolo[4,3-b]pyridin-5-yl]-3-methylmorpholine] yielded an IC50 in assay [1] of 10 to 100 nM.

On to `C[C@@H]1COCCN1c1ccc2c(n1)c(-c1cc[nH]n1)nn2Cc1ccccn1` [Compound 88, (3R)-3-Methyl-4-[3-(1H-pyrazol-3-yl)-1-[(pyridin-2-yl)methyl]-1H-pyrazolo[4,3-b]pyridin-5-yl]morpholine], for which the IC50 in assay [1] is 1000 to 10000 nM.

Usually IC50 stands for the point on the concentration scale where inhibition reaches its midpoint. Low values mean greater potency in that assay, high ones weaker potency in that assay.
